According to patent US20050196806A1, “Prostate specific antigen oligoepitope peptide” (The Government of the USA, as represented by the Secretary, …, priority 1996, published 2005):
≈ marks a conversion by molar mass, not a printed value. Marks after values point to notes of the source that are not given here. Residues, ends and D or L forms follow the SMILES beside them.

Assays:
[1] = tested on: CIR-A2 cells; test: Effects of protease inhibitors on CTL mediated killing of CIRA2 cells pulsed with PSA-OP; type: cell-based, human; settings: Donor-1 PSA-OP CTL, 25:1 E:T ratio; for % of Specific Release (+/−SD), CIRA2 cells, No peptide: Medium 7.7 (1.9)
Procedure: Various target cells were labeled with 50 μCi of ^111In-oxyquinoline (Medi-Physics Inc., Arlington, Ill.) for 15 minutes at room temperature. Target cells (0.2×10^4) in 100 μl of complete medium (see below) were added to each of 96 wells in flat bottom assay plates (Corning Costar Corp.). The labeled targets were incubated with peptides at a final concentration of 50 μg/ml for 60 min at 37° C. in 5% CO2 before adding effector cells. Effector cells were suspended in 100 μl of complete medium supplemented with 5% pooled human AB serum and added to target cells. The plates were incubated at 37° C. for 16 hours. Supernatants were harvested for γ-counting using harvester frames (Skatron, Inc. Sterling, Va.). Determinations were carried out in triplicate and standard deviations were calculated. All experiments were carried out three times. Specific Lysis was calculated using the following formula: % of Specific Release=observed release(cpm)−spontaneous release(cpm) total releae(cpm)−spontaneous release(cpm)×100
[…] Peptide pulsed target cells were incubated with protease inhibitors. Protease inhibitors used were E64, carboxypeptidase inhibitor, plummer inhibitor, and captopril (angiotension converting enzyme inhibitor) at various concentrations (10^−5, 10^−6, 10^−7 M). CTL activity was determined by the CTL assay described above.

[2] = Solubility of synthesized peptide; type: physicochemical; settings: in 1% DMSO
Procedure: PSA-OP was synthesized on an Applied Biosystems Model 432A peptide synthesizer. It operates on a 25 μmole scale and employs f-moc chemistry and feedback monitoring to control the coupling of each successive amino acid to the growing chain. The completed peptide is cleaved off the synthesis resin with -trifluoroacetic acid and thioanisole/ethanedithiol as scavengers. Acid salts are extracted with tert-butyl methyl ether and the peptide is lyophilized from water to give approximately 64 mg powder. The powder is soluble at 2 mg/ml in 1% DMSO and sterile-filtered aliquots show a single sharp peak on C18 reverse phase high performance liquid chromatography.

[3] = target: T1, human HLA A2 molecules (Homo sapiens, UniProt P04439, D140Y/D185E/D98H/E176V/E277Q/G131W/G231S/I119V/I121R/I166T/I218V/L300P/L318F/N151K/N90K/P208A/P217A/Q86G/Q94H/R138H/R169H/T345S); test: T2 cell binding assay (PSA peptide binding assay, Example II); settings: peptides at 50 μg/ml, None = 127.25
T1 construct: endogenous in cells; host or cells: T2 cells (174CEM.T2)
Source text: The amino acid sequence of human PSA was scanned using a predictive algorithm that combines a search for anchor residues with numerical assignments to all residues at all positions. The T2 cell binding assay was then used to determine which peptides bound human HLA A2 molecules. […] Table 7 gives the amino acid sequence of these peptides and compares them to corresponding sequences of HGK and PKA.

[4] = target: T2, HLA class-I A2001 molecule (Homo sapiens, UniProt P04439, D140Y/D185E/D98H/E176V/E277Q/G131W/G231S/I119V/I121R/I166T/I218V/L300P/L318F/N151K/N90K/P208A/P217A/Q86G/Q94H/R138H/R169H/T345S); test: Peptide binding to HLA-A2: upregulation on T2 cells by flow cytometry (Example IV); settings: T2 cells incubated 24 h with peptide 50 μg/ml/10^6 cells; 100 cut off value for positivity; None = 16.88
T2 construct: endogenous in cells; host or cells: T2 cells (174CEM.T2, transport deletion mutant)
Procedure: 1×10^6 cells in serum-free IMDM were incubated with peptides at the concentration of 50 μg/ml in 24-well culture plates at 37° C. in 5% CO2. Flow cytometry for peptide binding was performed using T2 cells and single color analysis. After cells were washed three times in DPBS as above, they were incubated for 1 hr with HLA-A2 specific MAb A2,69 (One lambda, Inc., Canoga Park, Calif.), using 10 μl of a 1× working dilution per 10^6 cells. MOPC-21 (Cappel/Organon Teknika Corp.) was used as isotype control. The cells were then washed three times and incubated with 1:100 dilution of fluorescein (FITC) labeled anti-mouse IgG (Kirkegaard & Perry, Gaithersburg, Md.). Analysis was carried out using the FACScan as described above. Cells were maintained on ice during all cell preparation and staining unless otherwise stated.

[5] = tested on: NK target K562; test: Cytotoxic assay of PSA peptide specific T cells against K562; type: cell-based, human; settings: 24 hour assay, E:T ratio 25:1
Source text: (§1) Four of the T cell lines derived from three different individuals were then assays for their ability to lyse human cells (Table 9). […] No lysis was seen using the PSA negative human colon cancer cell line COLO-205. While 80% lysis was seen using the LNCAP PSA expressing human prostate cancer cell line. When employing the NK target K562, which measures non-specific lysis due to NK cell activity, only 23% lysis was obtained. Similar results were seen employing a different T cell line obtained from the same patient which was derived from pulsing with PSA peptide 154-163. Two additional T cell lines which were derived from peptide 154-163 were also analyzed. One was from a normal donor (T-1538) and one was from a prostate cancer patient (T-PC2; T Donor C).

[6] = tested on: PBLs isolated from male HLA-A2001+ donors; test: Limiting dilution analysis of CTL precursor frequency; type: cell-based, human; settings: for Number of precursors (precursor frequency): calculated by X^2 minimization; for % of negative microcolonies, 10,000: two cycles of stimulation with the peptide, targets CIRA2 pulsed 3 h, cold K562
Procedure: Limiting dilution assays were used for the determination of precursor frequencies to PSA-1, PSA-3 and PSA-OP. Various number of PBMCs were seeded in 96-well flat bottom plates (Coming Costar) with 1×10^4 autologous PBMC irradiated with 4,000 rads and incubated with 50 μg/ml of PSA peptide. Cells were cultured in complete medium as described previously. At least 48 cultures were set up for each dilution. Cultures were incubated for 5 days at 37° C. in a humidified atmosphere containing 5% CO2 and then provided with fresh medium containing human IL-2 for 11 days, with IL-2-containing medium being replenished every 72 hr as shown below for CTLs generation. After two cycles of stimulation specific cytotoxic activity was tested for each single well, against CIR-A2 target cells with or without incubation with peptide. Cytotoxic assays were similar to the method described above. The unlabelled K562 cells were added to the microwells containing responder cells. After 1 hr incubation at 37° C. target cells were added into each well and incubated for 6 hrs at 37° C. Precursor frequencies were calculated by X^2 minimization.

[7] = tested on: PSA negative human colon cancer cell line COLO-205; test: Cytotoxic assay of PSA peptide specific T cells against COLO-205; type: cell-based; settings: 24 hour assay, E:T ratio 25:1
Source text: as §1

[8] = tested on: LNCAP PSA expressing human prostate cancer cell line; test: Cytotoxic assay of PSA peptide specific T cells against LNCAP (Example III); type: cell-based; settings: 24 hour assay, E:T ratio 25:1
Source text: as §1

[9] = tested on: PBMC from normal healthy donors expressing the HLA A2 class 1 allele; test: Establishment of human T cell lines by pulsing PBMC with peptide and IL-2; type: cell-based; settings: donors with T cell line / donors tested; PBMC pulsed with peptide and IL-2
Source text: Cytotoxic T-cells specific for PSA can be established from peripheral blood mononuclear cells (PBMC) obtained from a host immunized as discussed above. For example, PBMC can be separated by using Lymphocyte Separation Medium gradient (Organon Teknika, Durham, N.C., USA) as previously described [Boyum et al, Scand J. Clin Lab Invest 21:77-80 (1968)]. Washed PBMC are resuspended in a complete medium, for example, RPMI 1640 (GIBCO) supplemented with 10% pool human AB serum (Pel-Freeze Clinical System, Brown Dear, Wisc., USA), 2 mM glutamine, 100 U/ml penicillin and 100 μg/ml of streptomycin (GIBCO). PBMC at a concentration of about 2×10^5 cells in complete medium in a volume of, for example 100 μl are added into each well of a 96-well flat-bottom assay plate (Costar, Cambridge, Mass., USA). The antigen or peptides are added into the cultures in a final concentration of about 50 μg/ml and incubated at 37° C. in a humidified atmosphere containing 5% CO2 for 5 days. After removal of peptide containing media, the cultures are provided with fresh human IL-2 (10 U/ml) after 5 days and replenished with IL-2 containing medium every 3 days. Primary cultures are restimulated with the same peptide (50 μg/ml) on day 16. 5×10^5 irradiated (4,000 rad) autologous PBMC are added in a volume of about 50 μl complete medium as antigen-presenting cells (APC). […]

[10] = tested on: T2 cells; test: Cytotoxic assay of PSA peptide specific T cells against T2 cells; type: cell-based, human; settings: 24 hour assay, E:T ratio 25:1
[11] = T-Donor C T-cell line (prostate cancer patient)

C[C@H](CS)C(=O)N1CCC[C@H]1C(=O)O [Captopril, captopril]
% of Specific Release (+/−SD), CIRA2 cells pulsed with PSA-OP peptide [50 μg/ml] ([1]; inhibitor 10^−6 M): 11.0 (2.6) %
% of Specific Release (+/−SD), CIRA2 cells, No peptide ([1]; inhibitor 10^−6 M): 15.8 (2.1) %

CC(C)C[C@H](NC(=O)[C@H]1O[C@@H]1C(=O)O)C(=O)NCCCCN=C(N)N [E 64]
% of Specific Release (+/−SD), CIRA2 cells pulsed with PSA-OP peptide [50 μg/ml] ([1]; inhibitor 10^−6 M): 13.7 (0.6) %
% of Specific Release (+/−SD), CIRA2 cells, No peptide ([1]; inhibitor 10^−6 M): 11.9 (1.7) %

CC[C@H](C)[C@H](NC(=O)[C@@H](NC(=O)[C@H](Cc1c[nH]cn1)NC(=O)[C@H](CC(C)C)NC(=O)[C@H](CC(=O)O)NC(=O)[C@@H](NC(=O)[C@H](CS)NC(=O)[C@H](CCC(N)=O)NC(=O)[C@H](CC(C)C)NC(=O)[C@H](CCCCN)NC(=O)[C@H](CCCCN)NC(=O)[C@@H]1CCCN1C(=O)[C@@H](NC(=O)[C@H](CC(C)C)NC(=O)[C@@H](N)Cc1ccccc1)[C@@H](C)O)C(C)C)C(C)C)C(=O)N[C@@H](CO)C(=O)N[C@@H](CC(N)=O)C(=O)N[C@@H](CC(=O)O)C(=O)N[C@H](C(=O)N[C@@H](CS)C(=O)N[C@@H](C)C(=O)N[C@@H](CCC(N)=O)C(=O)N[C@H](C(=O)N[C@@H](Cc1c[nH]cn1)C(=O)N1CCC[C@H]1C(=O)N[C@@H](CCC(N)=O)C(=O)N[C@@H](CCCCN)C(=O)N[C@H](C(=O)N[C@H](C(=O)N[C@@H](CCCCN)C(=O)O)[C@@H](C)O)C(C)C)C(C)C)C(C)C [PSA-OP] (H-FLTPKKLQCVDLHVISNDVCAQVHPQKVTK-OH; N-terminus and C-terminus assumed)
solubility [2]: 2000 µg/mL (≈ 590 µM)

NC(N)=NCCSCC(CS)C(=O)O (centres unmarked) [Plummer's]
% of Specific Release (+/−SD), CIRA2 cells, No peptide ([1]; inhibitor 10^−5 M): 10.7 (2.0) %

KLQCVDLHV [PSA 146-154, ID No. 9]
MAb A2, 69: Mean channel fluorescent intensity [3]: 223.97
MAb A2, 69: Mean channel fluorescent intensity ([3]; listed as 146-154): positive

PSA [42-51]: negative control peptide, unable to bind HLA class I-A2 [reference compound]
T2 binding: relative fluorescence (mean intensity) with anti-HLA-A2 mAb [4]: 51.44

VISNDVCAQV [PSA-3, ID No. 2]
% specific release (lysis), K562 ([5]; T-Donor A T-cell line): 22%
% specific release (lysis), K562 ([5]; T-Donor B T-cell line): 3%
% specific release (lysis), K562 [5, 11]: 2%
% of negative microcolonies, 500 ([6]; T/PSA-OP 2 donor): 100.0%
% of negative microcolonies, 1,000 ([6]; T/PSA-OP 2 donor): 100.0%
% of negative microcolonies, 5,000 ([6]; T/PSA-OP 2 donor): 97.8%
Number of precursors (precursor frequency) ([6]; T/PSA-OP 2 donor): 1/244200
% of negative microcolonies, 10,000 ([6]; T/PSA-OP 2 donor): 95.8%
% of negative microcolonies, 500 ([6]; T/PSA-OP 3 donor): 97.6%
% of negative microcolonies, 1,000 ([6]; T/PSA-OP 3 donor): 95.8%
% of negative microcolonies, 5,000 ([6]; T/PSA-OP 3 donor): 93.7%
Number of precursors (precursor frequency) ([6]; T/PSA-OP 3 donor): 1/59279
% of negative microcolonies, 10,000 ([6]; T/PSA-OP 3 donor): 89.6%
% specific release (lysis), COLO-205 ([7]; T-Donor A T-cell line): 10%
% specific release (lysis), COLO-205 ([7]; T-Donor B T-cell line): 10%
% specific release (lysis), COLO-205 [7, 11]: 8%
% specific release (lysis), LNCAP ([8]; T-Donor A T-cell line): 60^b %
% specific release (lysis), LNCAP ([8]; T-Donor B T-cell line): 29^b %
% specific release (lysis), LNCAP [8, 11]: 35^b %
T2 binding: relative fluorescence (mean intensity) with anti-HLA-A2 mAb [4]: 123.71
MAb A2, 69: Mean channel fluorescent intensity ([3]; listed as 154-163): positive
MAb A2, 69: Mean channel fluorescent intensity ([3]; listed as PSA 154-163): 182.30
T cell lines established from normal donors [9]: 6/6
% specific release (lysis), T2 ([10]; T-Donor A T-cell line derived with the peptide, 111In release): 16%
% specific release (lysis), T2 + peptide ([10]; T-Donor A T-cell line): 35^b %
% specific release (lysis), T2 ([10]; T-Donor B T-cell line): 10%
% specific release (lysis), T2 + peptide ([10]; T-Donor B T-cell line): 40^b %
% specific release (lysis), T2 [10, 11]: 15%
% specific release (lysis), T2 + peptide [10, 11]: 35^b %
